Earlier results, collected in patent publication US10253371B2, “Method of treating leukemia based on gene expression of clock genes” (National Guard Health Affairs, priority 2016, dated 2019).

Tests used:
Bcr-Abl tyrosine kinase = details: more potent than imatinib
Bcr-Abl expressing cells = details: more potent than imatinib

- potency relative to imatinib in inhibiting Bcr-Abl tyrosine kinase activity (Bcr-Abl tyrosine kinase): 10-30 fold
SMILES: Cc1cn(-c2cc(NC(=O)c3ccc(C)c(Nc4nccc(-c5cccnc5)n4)c3)cc(C(F)(F)F)c2)cn1 [Nilotinib]
- potency relative to imatinib in inhibiting proliferation of Bcr-Abl expressing cells (Bcr-Abl expressing cells): 10-30 fold
